What was measured:
[1] = test system: post-oligaemic rats; assay: One-trial passive avoidance task (retention of conditioned response); format: in vivo, Sprague-Dawley (Iffa Credo) male rats
Protocol: (§1) The study was conducted with a view to assessing the therapeutical effect of ST 687 administered i.p. to rats immediately after the effect of a transient forebrain oligohaemia in the experiment animals were detected. In particular, the propensity of post-oligaemic rats to develop conditioning was studied in a one-trial passive avoidance task. Concurrently, the neurologic deficit during a 3-day period following the ischaemic insult was assessed, and finally the extent of the oedema was assessed by measuring the water content of the cerebral tissue.
(§2) In the experiments Sprague-Dawley (Iffa Credo) male rats weighing 230-250 g were used, that had been caged (5 rats/cage) under conditions of controlled temperature (22°C±1°C), 50% relative humidity and 12-hours dark-light cycle (light on from 8 a.m. to 8 p.m.). The rats were fed UAR (Epinay Orge, France) laboratory chow and had free access to tap water. The rats were caged for 5 days before surgery.
(§3) Under light ether anesthesia, carotid arteries were isolated and loosely surrounded by a thread. Twenty-four hours later, reversible incomplete forebrain ischemia was produced by bilateral common carotid artery occlusion combined with sodium nitroprusside-induced arterial hypotension (1.1 mg/rat s.c.). Mean arterial blood pressure (MABP) was lowered and maintained nearby 6.6 kPa for 45 min. Then it gruadually returned to normal within the 60th minute when carotid occlusion was removed.
The functional aspects of the cerebral ischemic injury were assessed by a one trial learning procedure (passive avoidance reaction) as originally described by Kurtz K. H. e Pearl J.: The effects of prior fear experience in acquired drive learning. J. Comp. Physiol, Psychol, 1960, 53 : 201-206, and more extensively developed by Buresova et al.: Effect of atropine on learning, extinction, retention and retrieval in rats. Psychopharmacologia, 1964, 5 : 255-263.
Four hours after clipping-off untreated post-oligaemic rats were placed into an apparatus consisting of a large illuminated compartment (40 x 40 cm) connected by an opening to a small dark compartment (10 x 10 cm) with an electrified grid floor. The animals placed into the large compartment were allowed to explore the apparatus for three minutes. The latency to enter and the time spent in the small compartment were measured with a stop watch. Habituation to the experimental conditions was repeated 24 and 29 hours after ischemia. At the end of the third habituation trial, the opening between the two compartments was closed and the rat, placed into the small compartment, received intermittent electrical foot-shocks for one minute. The retention of the passive avoidance towards the small compartment was tested 24 and 48 hours after the last habituation trial i.e. 53 and 77 hours post-oligohaemia, respectively. The criterion used to determine whether an animal was conditioned was based upon the rat remaining in the large illuminated compartment for 180 sec. without entry into the small dark compartment.

[2] = test system: post-oligaemic rats; assay: Death rate after transient forebrain oligohaemia; format: in vivo, Sprague-Dawley (Iffa Credo) male rats
Protocol: as §1, §2, §3

[3] = test system: post-oligaemic rats; assay: Cerebral oedema upon brain excision 77 hours post-oligohaemia; format: in vivo, Sprague-Dawley (Iffa Credo) male rats; details: survivors
Protocol: as §1, §2, §3
Immediately after the last retention trial, i.e. 77 hours post-oligohaemia, rats were sacrificed by decapitation, their brains rapidly removed and macroscopically examined in terms of swelling. Brain water content was determined by the method wet weight/dry weight.

[4] = test system: acetaminophen (paracetamol)-induced hepatic damage; assay: Protection against acetaminophen (paracetamol)-induced hepatic damage, serum transaminases; format: in vivo, Male Wistar rats; details: SGOT and SGPT in blood serum; 101 mg/kg body weight orally 1, 8 and 24 hours after paracetamol 1 g/kg per os; sacrifice at 32 hours; with respect to the control animals
Protocol: Male Wistar rats weighing 200-250 g (15 rats/group) that had been keept fasting for at least 12 hours, were administered a single dose of paracetamol (1 g/kg body weight, per os). 100 g paracetamol were dissolved in 1000 ml of 5% (w/v) carboxymethylcellulose suspension in water. […] 101 mg ST 784/kg body weight were administered orally (as aqueous solution) 1, 8 and 24 hours, respectively, following paracetamol administration. The animals were sacrificed 32 hours following paracetamol administration.
Transaminases (SGOT and SGPT) were measured in blood serum. ST 784 provoked a decrease in transaminases exceding 60% ([…]) with respect to the control animals.

ester of isovaleryl (R)(-)-carnitine chloride with (R,S)(±)-beta-hydroxybutyric acid [ST 687]
Incidence of retention of conditioned response (%) ([1]; 2,5 mg. kg i.p. twice a day, + 53 h): 20,0%
Incidence of retention of conditioned response (%) ([1]; 2,5 mg. kg i.p. twice a day, + 77 h): 40,0%
Incidence of retention of conditioned response (%) ([1]; 5,0 mg. kg i.p. twice a day, + 53 h): 60,0%
Incidence of retention of conditioned response (%) ([1]; 5,0 mg. kg i.p. twice a day, + 77 h): 60,0%
Incidence of retention of conditioned response (%) ([1]; 7,5 mg. kg i.p. twice a day, + 53 h): 53,3%
Incidence of retention of conditioned response (%) ([1]; 7,5 mg. kg i.p. twice a day, + 77 h): 66,7%
Death rate after 72 hours (%) ([2]; 2,5 mg. kg i.p. twice a day): 47,4%
Death rate after 72 hours (%) ([2]; 5,0 mg. kg i.p. twice a day): 37,5%
Death rate after 72 hours (%) ([2]; 7,5 mg. kg i.p. twice a day): 62,5%
Incidence of cerebral oedema upon excision (3) ([3]; 2,5 mg. kg i.p. twice a day): 80,0
Incidence of cerebral oedema upon excision (3) ([3]; 5,0 mg. kg i.p. twice a day): 50,0
Incidence of cerebral oedema upon excision (3) ([3]; 7,5 mg. kg i.p. twice a day): 66,7

CC(CC(=O)O)OC(=O)CC(O)C[N+](C)(C)C (racemic) [ST 784, ester of R(-)-carnitine chloride with R,S(±)beta-hydroxybutyric acid]
decrease in transaminases [4]: > 60%

CC(=O)O[C@H](CC(=O)[O-])C[N+](C)(C)C [Acetyl (R)(-)-carni-tine, acetyl (R)(-)-carnitine, reference compound]
Incidence of retention of conditioned response (%) ([1]; 12,5 mg. kg i.p. twice a day, + 53 h): 80,0%
Incidence of retention of conditioned response (%) ([1]; 12,5 mg. kg i.p. twice a day, + 77 h): 80,0%
Incidence of retention of conditioned response (%) ([1]; 25,0 mg. kg i.p. twice a day, + 53 h): 60,0%
Incidence of retention of conditioned response (%) ([1]; 25,0 mg. kg i.p. twice a day, + 77 h): 70,0%
Incidence of retention of conditioned response (%) ([1]; 50,0 mg. kg i.p. twice a day, + 53 h): 70,0%
Incidence of retention of conditioned response (%) ([1]; 50,0 mg. kg i.p. twice a day, + 77 h): 50,0%
Death rate after 72 hours (%) ([2]; 12,5 mg. kg i.p. twice a day): 33,3%
Death rate after 72 hours (%) ([2]; 25,0 mg. kg i.p. twice a day): 41,2%
Death rate after 72 hours (%) ([2]; 50,0 mg. kg i.p. twice a day): 50,0%
Incidence of cerebral oedema upon excision (3) ([3]; 12,5 mg. kg i.p. twice a day): 80,0
Incidence of cerebral oedema upon excision (3) ([3]; 25,0 mg. kg i.p. twice a day): 60,0
Incidence of cerebral oedema upon excision (3) ([3]; 50,0 mg. kg i.p. twice a day): 90,0

From patent EP0443996B1, “Esters of (R)(-)-carnitine and acyl (R)(-)-carnitines with beta-hydroxybutyric acid and pharmaceutical compositions containing them for inhibiting neuronal degeneration, liver proteolysis and for the treatment of coma” (Sigma-Tau Industrie Farmaceutiche Riunite S.p.A., priority 1990, dated 1991)
